Measurements reported in PubChem BioAssay (NCI).
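Interpolation was linear, between the two tested concentrations surrounding the appropriate level; five concentrations were tested over 48 hours in 96-well plates. TGI: total growth inhibition.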

How the values were obtained:
Experiment in all cases: DTP human tumour cell line panel, 48 h
[1] = system: TK-10 renal
[2] = system: SK-MEL-2 melanoma
[3] = system: SW-620 colon
[4] = system: NCI-H23 lung
[5] = system: A549 NSCLC
[6] = system: SF-268 CNS
[7] = system: HS 578T breast
[8] = system: HCC-2998 colon
[9] = system: OVCAR-5 ovarian
[10] = system: SN12C renal
[11] = system: LOX IMVI melanoma
[12] = system: MDA-MB-231 breast
[13] = system: OVCAR-4 ovarian
[14] = system: SF-295 CNS
[15] = system: SK-OV-3 ovarian
[16] = system: SK-MEL-5 melanoma
[17] = system: NCI/ADR-RES ovarian
[18] = system: UACC-62 melanoma
[19] = system: HCT-15 colon
[20] = system: NCI-H460 lung
[21] = system: ACHN renal
[22] = system: HCT-116 colon
[23] = system: PC-3 prostate
[24] = system: MDA-MB-435
[25] = system: NCI-H226 lung
[26] = system: T-47D breast
[27] = system: MALME-3M melanoma
[28] = system: UACC-257 melanoma
[29] = system: OVCAR-8 ovarian
[30] = system: SF-539 CNS
[31] = system: HL-60(TB) leukemia
[32] = system: A498 renal
[33] = system: MDA-N
[34] = system: SNB-75 CNS
[35] = system: IGROV1 ovarian
[36] = system: COLO 205 colon
[37] = system: RXF 393 renal
[38] = system: KM12 colon
[39] = system: HOP-92 NSCLC
[40] = system: SNB-19 CNS
[41] = system: K-562 leukemia
[42] = system: UO-31 renal
[43] = system: DU-145 prostate
[44] = system: EKVX NSCLC
[45] = system: CCRF-CEM leukemia
[46] = system: RPMI-8226 leukemia
[47] = system: SK-MEL-28 melanoma
[48] = system: CAKI-1 renal
[49] = system: HT29 colon
[50] = system: NCI-H522 lung
[51] = system: MOLT-4 leukemia
[52] = system: HOP-62 NSCLC
[53] = system: U251 CNS
[54] = system: SR leukemia
[55] = system: 786-0 renal
[56] = system: MCF7 breast
[57] = system: M14 melanoma
[58] = system: BT-549 breast
[59] = system: OVCAR-3 ovarian

Which TGI [1] does the source give for `N=C(N)SCc1ccc(N=C=S)cc1` here?
Its TGI is 28.1 µM.

And the TGI [2]?
The TGI was 23 µM.

And the TGI [3]?
Its TGI is 29.1 µM.

And the TGI [4]?
The TGI was 27.5 µM.

What about the TGI [5] of the same compound?
Its TGI is 30.5 µM.

What about the TGI [6] of the same compound?
The TGI was 35.1 µM.

What about the TGI [7] of the same compound?
The TGI was 42.1 µM.

And the TGI [8]?
The TGI was 30.4 µM.

And the TGI [9]?
The TGI was 27.6 µM.

And the TGI [10]?
The TGI was 28.5 µM.

And the TGI [11]?
The TGI was 28 µM.

And the TGI [12]?
Its TGI is 20.1 µM.

What about the TGI [13] of the same compound?
Its TGI is 27.4 µM.

What about the TGI [14] of the same compound?
Its TGI is 31.2 µM.

What about the TGI [15] of the same compound?
The TGI was 31.1 µM.

And the TGI [16]?
The TGI was 27.2 µM.

What about the TGI [17] of the same compound?
Its TGI is 43 µM.

What about the TGI [18] of the same compound?
Its TGI is 23.7 µM.

And the TGI [19]?
The TGI was 24.6 µM.

And the TGI [20]?
Its TGI is 30.4 µM.

What about the TGI [21] of the same compound?
The TGI was 26.1 µM.

And the TGI [22]?
Its TGI is 27.2 µM.

And the TGI [23]?
The TGI was 30.1 µM.

What about the TGI [24] of the same compound?
The TGI was 26 µM.

And the TGI [25]?
The TGI was 34.6 µM.

What about the TGI [26] of the same compound?
Its TGI is 34.9 µM.

What about the TGI [27] of the same compound?
The TGI was 27.4 µM.

What about the TGI [28] of the same compound?
The TGI was 25.8 µM.

And the TGI [29]?
Its TGI is 31.6 µM.

And the TGI [30]?
The TGI was 27.3 µM.

And the TGI [31]?
The TGI was 35.9 µM.

And the TGI [32]?
Its TGI is 26.9 µM.

And the TGI [33]?
Its TGI is 26.6 µM.

What about the TGI [34] of the same compound?
Its TGI is 21.9 µM.

And the TGI [35]?
The TGI was 26.7 µM.

And the TGI [36]?
Its TGI is 28.2 µM.

What about the TGI [37] of the same compound?
The TGI was 17.8 µM.

And the TGI [38]?
Its TGI is 27.6 µM.

And the TGI [39]?
Its TGI is 24.2 µM.

And the TGI [40]?
Its TGI is 26.7 µM.

What about the TGI [41] of the same compound?
The TGI was 44 µM.

And the TGI [42]?
The TGI was 25 µM.

What about the TGI [43] of the same compound?
Its TGI is 29.5 µM.

What about the TGI [44] of the same compound?
The TGI was 35.5 µM.

What about the TGI [45] of the same compound?
Its TGI is over 100 µM.

And the TGI [46]?
The TGI was over 100 µM.

What about the TGI [47] of the same compound?
The TGI was 28.7 µM.

What about the TGI [48] of the same compound?
Its TGI is 25.4 µM.

And the TGI [49]?
The TGI was 40.3 µM.

And the TGI [50]?
Its TGI is 21.6 µM.

And the TGI [51]?
The TGI was over 100 µM.

What about the TGI [52] of the same compound?
Its TGI is 32.5 µM.

And the TGI [53]?
The TGI was 29 µM.

What about the TGI [54] of the same compound?
The TGI was over 100 µM.

What about the TGI [55] of the same compound?
The TGI was 26.7 µM.

What does the source list for `O=C1Nc2ccccc2/C1=C\c1c(Cl)nc2n1CCS2`?
TGI [1]: 49.9 µM; TGI [2]: 32.5 µM; TGI [3]: > 100 µM; TGI [4]: 65.8 µM; TGI [5]: > 100 µM; TGI [6]: 94.8 µM; TGI [7]: 40.1 µM; TGI [8]: 35.3 µM; TGI [9]: > 100 µM; TGI [10]: > 100 µM; TGI [11]: > 100 µM; TGI [12]: 53.2 µM; TGI [13]: > 100 µM; TGI [14]: 99.6 µM; TGI [15]: 74.9 µM; TGI [16]: 29.4 µM; TGI [17]: 67.5 µM; TGI [18]: 32.2 µM; TGI [19]: 64.5 µM; TGI [20]: 45.3 µM; TGI [21]: > 100 µM; TGI [22]: 68 µM; TGI [23]: 80.4 µM; TGI [24]: 43.9 µM; TGI [56]: 60.6 µM; TGI [57]: > 100 µM; TGI [26]: 91 µM; TGI [27]: 62.1 µM; TGI [28]: 30.6 µM; TGI [29]: > 100 µM; TGI [31]: 48.8 µM; TGI [32]: 61.4 µM; TGI [33]: 43.6 µM; TGI [34]: 56.8 µM; TGI [35]: > 100 µM; TGI [36]: 38.5 µM; TGI [37]: 57.3 µM; TGI [38]: > 100 µM; TGI [39]: > 100 µM; TGI [40]: > 100 µM; TGI [41]: > 100 µM; TGI [42]: > 100 µM; TGI [43]: > 100 µM; TGI [44]: > 100 µM; TGI [45]: > 100 µM; TGI [58]: 52.8 µM; TGI [46]: > 100 µM; TGI [47]: > 100 µM; TGI [59]: 68.7 µM; TGI [48]: > 100 µM; TGI [49]: > 100 µM; TGI [50]: 40.5 µM; TGI [51]: 97.9 µM; TGI [52]: > 100 µM; TGI [53]: 75.6 µM; TGI [55]: 60.6 µM

Which TGI [1] does the source give for `O=[p+]1c2ccccc2[nH]c2ccccc21` here?
The TGI was over 100 µM.

And the TGI [2]?
Its TGI is over 100 µM.

What about the TGI [3] of the same compound?
The TGI was over 100 µM.

And the TGI [4]?
The TGI was over 100 µM.

What about the TGI [5] of the same compound?
The TGI was over 100 µM.

And the TGI [6]?
Its TGI is over 100 µM.

What about the TGI [8] of the same compound?
The TGI was over 100 µM.

And the TGI [9]?
The TGI was over 100 µM.

What about the TGI [10] of the same compound?
The TGI was over 100 µM.

And the TGI [11]?
Its TGI is over 100 µM.

And the TGI [12]?
Its TGI is over 100 µM.

And the TGI [13]?
Its TGI is over 100 µM.

And the TGI [14]?
Its TGI is over 100 µM.

What about the TGI [15] of the same compound?
The TGI was over 100 µM.

And the TGI [16]?
Its TGI is over 100 µM.

And the TGI [17]?
Its TGI is over 100 µM.

And the TGI [18]?
The TGI was over 100 µM.

What about the TGI [19] of the same compound?
Its TGI is over 100 µM.

What about the TGI [20] of the same compound?
Its TGI is over 100 µM.

And the TGI [21]?
Its TGI is over 100 µM.

And the TGI [22]?
Its TGI is over 100 µM.

What about the TGI [23] of the same compound?
Its TGI is over 100 µM.

What about the TGI [24] of the same compound?
The TGI was over 100 µM.

And the TGI [56]?
Its TGI is over 100 µM.

What about the TGI [57] of the same compound?
Its TGI is over 100 µM.

And the TGI [25]?
The TGI was over 100 µM.

What about the TGI [26] of the same compound?
The TGI was over 100 µM.

And the TGI [27]?
The TGI was over 100 µM.

And the TGI [28]?
Its TGI is over 100 µM.

And the TGI [29]?
Its TGI is over 100 µM.

And the TGI [30]?
Its TGI is over 100 µM.

And the TGI [31]?
The TGI was over 100 µM.

And the TGI [32]?
The TGI was over 100 µM.

What about the TGI [33] of the same compound?
Its TGI is over 100 µM.

And the TGI [34]?
Its TGI is over 100 µM.

What about the TGI [35] of the same compound?
Its TGI is over 100 µM.

And the TGI [36]?
The TGI was over 100 µM.

And the TGI [37]?
The TGI was over 100 µM.

And the TGI [38]?
Its TGI is over 100 µM.

And the TGI [39]?
Its TGI is over 100 µM.

What about the TGI [40] of the same compound?
Its TGI is over 100 µM.

What about the TGI [41] of the same compound?
Its TGI is over 100 µM.

What about the TGI [43] of the same compound?
The TGI was over 100 µM.

And the TGI [44]?
Its TGI is over 100 µM.

And the TGI [45]?
Its TGI is over 100 µM.

What about the TGI [47] of the same compound?
Its TGI is over 100 µM.

What about the TGI [59] of the same compound?
The TGI was over 100 µM.

What about the TGI [48] of the same compound?
Its TGI is over 100 µM.

And the TGI [49]?
The TGI was over 100 µM.

And the TGI [50]?
Its TGI is over 100 µM.

What about the TGI [51] of the same compound?
Its TGI is over 100 µM.

What about the TGI [52] of the same compound?
Its TGI is over 100 µM.

And the TGI [53]?
The TGI was over 100 µM.

What about the TGI [54] of the same compound?
Its TGI is over 100 µM.

And the TGI [55]?
Its TGI is over 100 µM.
